Source: ChEMBL document CHEMBL1909569 (Bioorg Med Chem Lett, 2011)
Converted amounts (≈) assume the structure as drawn.

Experiments:
[1] = system: Mycobacterium tuberculosis; test: Antimicrobial activity against replicating Mycobacterium tuberculosis after 8 days by micro plate alamar blue assay; assay type: functional; conditions: 192 h
[2] = system: Mycobacterium tuberculosis; test: Antimicrobial activity against non-replicating Mycobacterium tuberculosis after 11 days by luminescence based low oxygen recovery assay; assay type: functional; conditions: 264 h

Row | SMILES | MIC90 [1] [µM] | MIC90 [2] [µM]
1 | CO[C@H]1/C=C/O[C@@]2(C)Oc3c(C)c(NCCO)c4c(c3C2=O)C(=O)C=C(NC(=O)/C(C)=C\C=C\[C@H](C)[C@H](O)[C@@H](C)[C@@H](O)[C@@H](C)[C@H](OC(C)=O)[C@@H]1C)C4=O | 5.32 (≈ 3.93 µg/mL) | > 21.7
2 | CO[C@H]1/C=C/O[C@@]2(C)Oc3c(c4c5c(nn(CCO)c5c3C)C(=CC4=O)NC(=O)/C(C)=C\C=C\[C@H](C)[C@H](O)[C@@H](C)[C@@H](O)[C@@H](C)[C@H](OC(C)=O)[C@@H]1C)C2=O | > 5.4 | > 21.7
3 | CCNc1c(C)c2c3c4c1C(=O)C(=CC4=O)NC(=O)/C(C)=C\C=C\[C@H](C)[C@H](O)[C@@H](C)[C@@H](O)[C@@H](C)[C@H](OC(C)=O)[C@H](C)[C@@H](OC)/C=C/O[C@@](C)(O2)C3=O | 5.5 (≈ 3.98 µg/mL) | 21.4 (≈ 15.5 µg/mL)
4 | CO[C@H]1/C=C/O[C@@]2(C)Oc3c(C)c(NC4CCCCCC4)c4c(c3C2=O)C(=O)C(/C=N/N2CCN(C)CC2)=C(NC(=O)/C(C)=C\C=C\[C@H](C)[C@H](O)[C@@H](C)[C@@H](O)[C@@H](C)[C@H](OC(C)=O)[C@@H]1C)C4=O | 3.9 (≈ 3.57 µg/mL) | 13.7 (≈ 12.6 µg/mL)
5 | CO[C@H]1/C=C/O[C@@]2(C)Oc3c(C)c(NC4CCCCCC4)c4c(O)c(c(/C=N/N5CCN(C)CC5)c(O)c4c3C2=O)NC(=O)/C(C)=C\C=C\[C@H](C)[C@H](O)[C@@H](C)[C@@H](O)[C@@H](C)[C@H](OC(C)=O)[C@@H]1C | 3.8 (≈ 3.49 µg/mL) | > 17.4
6 | CO[C@H]1/C=C/O[C@@]2(C)Oc3c(C)c(NCc4ccccc4)c4c(c3C2=O)C(=O)C(/C=N/N2CCN(C)CC2)=C(NC(=O)/C(C)=C\C=C\[C@H](C)[C@H](O)[C@@H](C)[C@@H](O)[C@@H](C)[C@H](OC(C)=O)[C@@H]1C)C4=O | > 4.4 | > 17.6
7 | COc1c(N2C[C@@H]3CCCN[C@@H]3C2)c(F)cc2c(=O)c(C(=O)O)cn(C3CC3)c12 [MOXIFLOXACIN] | 0.64 (≈ 0.257 µg/mL) | 4.3 (≈ 1.73 µg/mL)
8 | CO[C@H]1/C=C/O[C@@]2(C)Oc3c(C)c(NCc4ccccc4)c4c(c3C2=O)C(=O)C=C(NC(=O)/C(C)=C\C=C\[C@H](C)[C@H](O)[C@@H](C)[C@@H](O)[C@@H](C)[C@H](OC(C)=O)[C@@H]1C)C4=O | 2.4 (≈ 1.88 µg/mL) | > 20.4
9 | C/C=C/Nc1c(C)c2c3c4c1C(=O)C(=C(/C=N/N1CCN(C)CC1)C4=O)NC(=O)/C(C)=C\C=C\[C@H](C)[C@H](O)[C@@H](C)[C@@H](O)[C@@H](C)[C@H](OC(C)=O)[C@H](C)[C@@H](OC)/C=C/O[C@@](C)(O2)C3=O | > 4.7 | > 18.6
10 | C/C=C/Nc1c(C)c2c3c4c(O)c(/C=N/N5CCN(C)CC5)c(c(O)c14)NC(=O)/C(C)=C\C=C\[C@H](C)[C@H](O)[C@@H](C)[C@@H](O)[C@@H](C)[C@H](OC(C)=O)[C@H](C)[C@@H](OC)/C=C/O[C@@](C)(O2)C3=O | > 4.6 | > 18.6
11 | NNC(=O)c1ccncc1 [ISONIAZID] | 0.39 (≈ 0.0535 µg/mL) | > 128
12 | C/C=C/Nc1c(C)c2c3c4c1C(=O)C(=CC4=O)NC(=O)/C(C)=C\C=C\[C@H](C)[C@H](O)[C@@H](C)[C@@H](O)[C@@H](C)[C@H](OC(C)=O)[C@H](C)[C@@H](OC)/C=C/O[C@@](C)(O2)C3=O | 5.2 (≈ 3.82 µg/mL) | 18.3 (≈ 13.4 µg/mL)
13 | CCNc1c(C)c2c3c4c(O)c(/C=N/N5CCN(C)CC5)c(c(O)c14)NC(=O)/C(C)=C\C=C\[C@H](C)[C@H](O)[C@@H](C)[C@@H](O)[C@@H](C)[C@H](OC(C)=O)[C@H](C)[C@@H](OC)/C=C/O[C@@](C)(O2)C3=O | > 4.7 | > 18.8
14 | CO[C@H]1/C=C/O[C@@]2(C)Oc3c(C)c(NCc4ccccc4)c4c(O)c(c(/C=N/N5CCN(C)CC5)c(O)c4c3C2=O)NC(=O)/C(C)=C\C=C\[C@H](C)[C@H](O)[C@@H](C)[C@@H](O)[C@@H](C)[C@H](OC(C)=O)[C@@H]1C | > 4.4 | > 17.5
15 | CO[C@H]1/C=C/O[C@@]2(C)Oc3c(C)c(NCCO)c4c(c3C2=O)C(=O)C(/C=N/N2CCN(C)CC2)=C(NC(=O)/C(C)=C\C=C\[C@H](C)[C@H](O)[C@@H](C)[C@@H](O)[C@@H](C)[C@H](OC(C)=O)[C@@H]1C)C4=O | > 4.6 | > 18.5
